Source: PubChem BioAssay AID2060483 (Molecular Pharmacology Branch, DTP, NCI, 2025)
pIC50: −log10 of the molar value.

Tested on: K24384-001-R-PDC complex spheroids, viability
Assay: Anticancer human tumor K24384-001-R-PDC patient-derived pancreatic adenocarcinoma cell line growth inhibition [GQUAD]
Settings: for pIC50: curve of first compound; for viability, T/C: stronger effect = lower value
Method in brief: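 Viability of tumor cells grown as complex spheroids with endothelial and stromal cells, exposed to drug combinations. Top concentration at or near clinical Cmax (else 10 microM), diluted in half-log increments.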

[1] = second compound 0.0316 µM, first compound 0.0316 µM
[2] = second compound 0.0316 µM, first compound 0.1 µM
[3] = second compound 0.0316 µM, first compound 0.316 µM
[4] = second compound 0.0316 µM, first compound 1 µM
[5] = second compound 0.0316 µM, first compound 3.16 µM
[6] = second compound 0.0316 µM, first compound 10 µM
[7] = second compound 0.1 µM, first compound 0.0316 µM
[8] = second compound 0.1 µM, first compound 0.1 µM
[9] = second compound 0.1 µM, first compound 0.316 µM
[10] = second compound 0.1 µM, first compound 1 µM
[11] = second compound 0.1 µM, first compound 3.16 µM
[12] = second compound 0.1 µM, first compound 10 µM
[13] = second compound 0.316 µM, first compound 0.0316 µM
[14] = second compound 0.316 µM, first compound 0.1 µM
[15] = second compound 0.316 µM, first compound 0.316 µM
[16] = second compound 0.316 µM, first compound 1 µM
[17] = second compound 0.316 µM, first compound 3.16 µM
[18] = second compound 0.316 µM, first compound 10 µM
[19] = second compound 1 µM, first compound 0.0316 µM
[20] = second compound 1 µM, first compound 0.1 µM
[21] = second compound 1 µM, first compound 0.316 µM
[22] = second compound 1 µM, first compound 1 µM
[23] = second compound 1 µM, first compound 3.16 µM
[24] = second compound 1 µM, first compound 10 µM
[25] = second compound 3.16 µM, first compound 0.0316 µM
[26] = second compound 3.16 µM, first compound 0.1 µM
[27] = second compound 3.16 µM, first compound 0.316 µM
[28] = second compound 3.16 µM, first compound 1 µM
[29] = second compound 3.16 µM, first compound 3.16 µM
[30] = second compound 3.16 µM, first compound 10 µM
[31] = second compound 10 µM, first compound 0.0316 µM
[32] = second compound 10 µM, first compound 0.1 µM
[33] = second compound 10 µM, first compound 0.316 µM
[34] = second compound 10 µM, first compound 1 µM
[35] = second compound 10 µM, first compound 3.16 µM
[36] = second compound 10 µM, first compound 10 µM
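Note: spheroids exposed to compounds for seven days.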

SMILES: Cc1cccc(N(C)C(=O)C2C(O)CCN2c2nc(C)cc(C(F)(F)F)c2C#N)c1 (stereo unspecified) + Cc1[nH]c2ccc(F)cc2c1-c1nc2c3cccnc3c3ncccc3c2[nH]1
- pIC50 (second compound 0.0316 µM): < 5.00
- pIC50 (second compound 0.1 µM): < 5.00
- pIC50 (second compound 0.316 µM): < 5.00
- pIC50 (second compound 1 µM): < 5.00
- pIC50 (second compound 3.16 µM): < 5.00
- pIC50 (second compound 10 µM): < 5.00
- viability, T/C [1]: 98.2%
- viability, T/C [2]: 90.9%
- viability, T/C [3]: 105%
- viability, T/C [4]: 95.2%
- viability, T/C [5]: 116%
- viability, T/C [6]: 117%
- viability, T/C [7]: 95.3%
- viability, T/C [8]: 102%
- viability, T/C [9]: 103%
- viability, T/C [10]: 100%
- viability, T/C [11]: 131%
- viability, T/C [12]: 118%
- viability, T/C [13]: 81.5%
- viability, T/C [14]: 103%
- viability, T/C [15]: 107%
- viability, T/C [16]: 104%
- viability, T/C [17]: 105%
- viability, T/C [18]: 128%
- viability, T/C [19]: 85.4%
- viability, T/C [20]: 91.2%
- viability, T/C [21]: 87.9%
- viability, T/C [22]: 99%
- viability, T/C [23]: 114%
- viability, T/C [24]: 93.4%
- viability, T/C [25]: 83.1%
- viability, T/C [26]: 75%
- viability, T/C [27]: 77.4%
- viability, T/C [28]: 85%
- viability, T/C [29]: 83.7%
- viability, T/C [30]: 71.8%
- viability, T/C [31]: 74.4%
- viability, T/C [32]: 85.5%
- viability, T/C [33]: 74.4%
- viability, T/C [34]: 85.6%
- viability, T/C [35]: 67.9%
- viability, T/C [36]: 75.5%

SMILES: COc1ncnc(C2CC2)c1-c1ncc2cnn(Cc3ccc(-c4nc(C(F)(F)F)cn4C(C)C)cc3)c2n1 + CN(C)c1ccc(Nc2c3ccc(NC(=O)CCN4CCCC4)cc3nc3cc(NC(=O)CCN4CCCC4)ccc23)cc1
- pIC50 (second compound 0.0316 µM): < 5.00
- pIC50 (second compound 0.1 µM): < 5.00
- pIC50 (second compound 0.316 µM): < 5.00
- pIC50 (second compound 1 µM): < 5.00
- pIC50 (second compound 3.16 µM): < 5.00
- pIC50 (second compound 10 µM): 5.16
- viability, T/C [1]: 85%
- viability, T/C [2]: 107%
- viability, T/C [3]: 107%
- viability, T/C [4]: 96.9%
- viability, T/C [5]: 83.6%
- viability, T/C [6]: 104%
- viability, T/C [7]: 73.9%
- viability, T/C [8]: 86.3%
- viability, T/C [9]: 100%
- viability, T/C [10]: 86.1%
- viability, T/C [11]: 96.7%
- viability, T/C [12]: 110%
- viability, T/C [13]: 79.9%
- viability, T/C [14]: 90.7%
- viability, T/C [15]: 77%
- viability, T/C [16]: 102%
- viability, T/C [17]: 97.2%
- viability, T/C [18]: 93.5%
- viability, T/C [19]: 88.1%
- viability, T/C [20]: 84.2%
- viability, T/C [21]: 88.6%
- viability, T/C [22]: 95.6%
- viability, T/C [23]: 73.7%
- viability, T/C [24]: 88.6%
- viability, T/C [25]: 85.1%
- viability, T/C [26]: 112%
- viability, T/C [27]: 85.6%
- viability, T/C [28]: 79.1%
- viability, T/C [29]: 86.9%
- viability, T/C [30]: 91.8%
- viability, T/C [31]: 65.7%
- viability, T/C [32]: 99.2%
- viability, T/C [33]: 79.2%
- viability, T/C [34]: 88%
- viability, T/C [35]: 70.4%
- viability, T/C [36]: 40.6%

SMILES: Cn1ncnc1[C@H]1c2n[nH]c(=O)c3cc(F)cc(c23)N[C@@H]1c1ccc(F)cc1 + Cc1[nH]c2ccc(F)cc2c1-c1nc2c3cccnc3c3ncccc3c2[nH]1
- pIC50 (second compound 0.0316 µM): < 6.50
- pIC50 (second compound 0.1 µM): < 6.50
- pIC50 (second compound 0.316 µM): < 6.50
- pIC50 (second compound 1 µM): < 6.50
- pIC50 (second compound 3.16 µM): < 6.50
- pIC50 (second compound 10 µM): < 6.50
- viability, T/C (second compound 0.0316 µM, first compound 0.000999 µM): 97.8%
- viability, T/C (second compound 0.0316 µM, first compound 0.00316 µM): 94.4%
- viability, T/C (second compound 0.0316 µM, first compound 0.00999 µM): 99.6%
- viability, T/C [1]: 92%
- viability, T/C (second compound 0.0316 µM, first compound 0.0999 µM): 102%
- viability, T/C [3]: 90.4%
- viability, T/C (second compound 0.1 µM, first compound 0.000999 µM): 87.9%
- viability, T/C (second compound 0.1 µM, first compound 0.00316 µM): 98.5%
- viability, T/C (second compound 0.1 µM, first compound 0.00999 µM): 90.3%
- viability, T/C [7]: 91%
- viability, T/C (second compound 0.1 µM, first compound 0.0999 µM): 97.1%
- viability, T/C [9]: 93.2%
- viability, T/C (second compound 0.316 µM, first compound 0.000999 µM): 86.7%
- viability, T/C (second compound 0.316 µM, first compound 0.00316 µM): 103%
- viability, T/C (second compound 0.316 µM, first compound 0.00999 µM): 93%
- viability, T/C [13]: 89.5%
- viability, T/C (second compound 0.316 µM, first compound 0.0999 µM): 93%
- viability, T/C [15]: 77.9%
- viability, T/C (second compound 1 µM, first compound 0.000999 µM): 95.3%
- viability, T/C (second compound 1 µM, first compound 0.00316 µM): 100%
- viability, T/C (second compound 1 µM, first compound 0.00999 µM): 95.3%
- viability, T/C [19]: 81.8%
- viability, T/C (second compound 1 µM, first compound 0.0999 µM): 85.9%
- viability, T/C [21]: 80.8%
- viability, T/C (second compound 3.16 µM, first compound 0.000999 µM): 74%
- viability, T/C (second compound 3.16 µM, first compound 0.00316 µM): 92.9%
- viability, T/C (second compound 3.16 µM, first compound 0.00999 µM): 72.3%
- viability, T/C [25]: 73.5%
- viability, T/C (second compound 3.16 µM, first compound 0.0999 µM): 72.4%
- viability, T/C [27]: 67.3%
- viability, T/C (second compound 10 µM, first compound 0.000999 µM): 64.3%
- viability, T/C (second compound 10 µM, first compound 0.00316 µM): 79%
- viability, T/C (second compound 10 µM, first compound 0.00999 µM): 57.2%
- viability, T/C [31]: 76.1%
- viability, T/C (second compound 10 µM, first compound 0.0999 µM): 71.2%
- viability, T/C [33]: 60.4%
